{"source": "patent US8039492B2", "about": "“Substituted cyclic compound, its preparation process and its medical use” (Shanghai Institute of Materia Medica, Chinese Academy of …, priority 2005, dated 2011)", "key": {"GLP-1R [1]": {"molecular_target": "T1, GLP-1R (Rattus norvegicus, UniProt P32301)", "T1 construct": "expressed in transfected cells; host or cells: HEK 293 (human embryonic kidney), stably transfected; self-made by National New Drugs Screening Center", "T1 sequence (P32301 22-463)": "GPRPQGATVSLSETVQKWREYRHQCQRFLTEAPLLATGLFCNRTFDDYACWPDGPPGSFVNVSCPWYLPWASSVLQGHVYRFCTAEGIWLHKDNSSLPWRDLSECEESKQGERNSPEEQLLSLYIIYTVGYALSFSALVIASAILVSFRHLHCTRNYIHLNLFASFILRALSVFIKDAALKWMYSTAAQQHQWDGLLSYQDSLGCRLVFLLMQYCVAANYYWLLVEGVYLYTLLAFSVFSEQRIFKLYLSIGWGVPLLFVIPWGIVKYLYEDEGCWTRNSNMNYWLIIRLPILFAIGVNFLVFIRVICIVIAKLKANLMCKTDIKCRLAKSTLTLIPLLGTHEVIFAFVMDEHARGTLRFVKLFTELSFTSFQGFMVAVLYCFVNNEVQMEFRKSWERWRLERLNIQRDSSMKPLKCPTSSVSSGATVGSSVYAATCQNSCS", "assay": "Antagonistic experiment with Exendin9-39 on S4P-induced reporter gene expression in HEK 293/GLP-1R+Luc cells", "type": "cell-based", "excerpt": "3. Antagonistic Experiment with Exendin9-39\nIn order to corroborate that the active compounds had receptor specificity with respect to their activating effects on reporter gene and intracellular cAMP, Exendin9-39 (Eur. J. Pharmacol, 1994, 269: 183-191; Metabolism 2004, 53:252-259.), a specific antagonist of GLP-1R, was used to validate whether it could antagonize the agonistic activity of the above representative compounds to GLP-1R.\n(§1) Cell strain: HEK 293/GLP-1R+Luc cell strain, in which GLP-1R and luciferase are stably expressed (self-made by National New Drugs Screening Center);\nHEK 293/GLP-1R+Luc cells were inoculated, in a quantity of 20,000/100 μl/well, into a 96-well culture plate, and cultured at 37° C. overnight with a DMEM culture medium containing 10% fetal bovine serum and 500 μg/ml G418. Exendin9-39 was diluted to a certain concentration gradient, which was then added, in a quantity of 1 μl/well, into the above 96-well culture plate. The culture was performed under the conditions of 37° C., 5% CO2 for 6 h. Thereafter, the activity of luciferase was detected according to the specification in the kit of Steady-Glo™ luciferase analytic system, and the reading was performed by using a Victor^2 plate-reading machine."}, "GLP-1R [2]": {"molecular_target": "T1, GLP-1R", "assay": "Testing the expression of reporter gene (luciferase under cAMP response element) in HEK 293/GLP-1R+Luc cells", "type": "cell-based", "conditions": "6 h", "excerpt": "1. Testing the Expression of Reporter Gene\n(§2) GLP-1R is a G-protein coupling receptor. When GLP-1R binds to an agonist, the Ga subunit of G protein is activated to stimulate adenylate cyclase, which leads to the increase in the concentration of intracellular cAMP. Since the promoter region of proinsulin gene has a cAMP response element, cAMP promotes, after binding to this response element, the transcription of the proinsulin gene, thereby stimulating the expression and secretion of insulin (Diabetes, 2000, Vol. 49: 1156-1164). The experimental method employs a human embryonal nephric cell strain (HEK 293) which is stably transfected with the expression vector of GLP-1R gene and the expression vector of luciferase reporter gene under the regulation of cAMP response element, to detect its response to the candidate compound (Cell Biology, 1992, Vol. 89: 8641-8645; Proc. Natl. Acad. Sci. U.S.A. 1987, Vol. 84: 3434-3438). When screening the candidate compounds, the compounds that may induce the expression of luciferase reporter gene are regarded as having the activity of activating GLP-1R.\nas §1\nHEK 293/GLP-1R+Luc cells were inoculated, in a quantity of 20,000/100 μl/well, into a 96-well culture plate, and cultured at 37° C. overnight with a DMEM culture medium containing 10% fetal bovine serum and 500 μg/ml G418. […] The culture was performed under the conditions of 37° C., 5% CO2 for 6 h. Thereafter, the activity of luciferase was detected according to the specification in the kit of Steady-Glo™ luciferase analytic system, and the reading was performed by using a Victor^2 plate-reading machine."}, "GLP-1R [3]": {"molecular_target": "T1, GLP-1R", "assay": "Determination of the concentration of intracellular cAMP (CatchPoint Cyclic AMP kit) in HEK 293/GLP-1R+Luc cells", "type": "cell-based", "conditions": "10 min", "excerpt": "2. Determination of the Concentration of Intracellular cAMP\nSince the concentration of intracellular cAMP can only be indirectly evaluated according to the above method for detecting the activation of reporter gene, it is necessary to determine the influence of active compounds on the concentration of intracellular cAMP by using a cAMP-determining kit, i.e., a functional re-screening.\ncAMP-determining kit (Molecular Devices Co., CatchPoint® Cyclic AMP kit);\nHEK 293/GLP-1R+Luc cell strain, in which GLP-1R and luciferase are stably expressed (self-made by National New Drugs Screening Center);\nHEK 293/GLP-1R+Luc cells were inoculated, in a quantity of 20,000/100 μl/well, into a 96-well culture plate, and cultured at 37° C. overnight. The candidate compounds S4P, S3-20-32, S3-11-14, S6-14 and S8 were respectively diluted to a certain concentration gradient, which were then added, in a quantity of […], into the above 96-well culture plate. The culture was performed under the conditions of 37° C., 5% CO2 for 10 min. Thereafter, the concentration of intracellular cAMP was determined according to the specification in CatchPoint® Cyclic AMP kit.\nThe lower the reading was, the higher the concentration of intracellular cAMP was."}, "HEK 293/GLP-1R+Luc cells": {"tested_on": "HEK 293/GLP-1R+Luc cells", "assay": "Cytotoxicity noted in the reporter gene test", "type": "cell-based, human", "conditions": "6 h", "excerpt": "as §2, with “When screening the candidate compounds, the compounds that may induce the expression of luciferase reporter gene are regarded as having the activity of activating GLP-1R.” left out\nHEK 293/GLP-1R+Luc cells were inoculated, in a quantity of 20,000/100 μl/well, into a 96-well culture plate, and cultured at 37° C. overnight with a DMEM culture medium containing 10% fetal bovine serum and 500 μg/ml G418. […] Thereafter, the activity of luciferase was detected according to the specification in the kit of Steady-Glo™ luciferase analytic system, and the reading was performed by using a Victor^2 plate-reading machine."}, "[4]": {"conditions": "final concentration 0.00001 mg/ml"}, "[5]": {"conditions": "final concentration 0.00003 mg/ml"}, "[6]": {"conditions": "final concentration 0.0001 mg/ml"}, "[7]": {"conditions": "final concentration 0.0003 mg/ml"}, "[8]": {"conditions": "final concentration 0.001 mg/ml"}, "[9]": {"conditions": "final concentration 0.003 mg/ml"}}}
{"molecule": "Exendin9-39 [reference compound]", "values": [{"measurement": "effect on the expression of reporter gene induced by S4P", "setting": "GLP-1R [1]; Table 3, FIG. 6", "result": "inhibit, in a dose-dependent manner"}]}
{"molecule": "COc1cc(C2C(NC(=O)c3ccc(NC(=O)C4CCCC4)cc3)(C(=O)O)C(c3ccc(OC(=O)c4cccs4)c(OC)c3)C2(NC(=O)c2ccc(NC(=O)C3CCCC3)cc2)C(=O)O)ccc1OC(=O)c1cccs1", "note": "(centres unmarked) [Compound S4P]", "values": [{"measurement": "expression of the reporter gene (% reaction, taking the reaction of 30 nM GLP-1 as 100%)", "setting": "GLP-1R [2]; final concentration 0.000003 mg/ml", "result": 5.157, "unit": "%"}, {"measurement": "expression of the reporter gene (% reaction, taking the reaction of 30 nM GLP-1 as 100%)", "setting": "GLP-1R [2]; [4]", "result": 5.151, "unit": "%"}, {"measurement": "expression of the reporter gene (% reaction, taking the reaction of 30 nM GLP-1 as 100%)", "setting": "GLP-1R [2]; [5]", "result": 5.276, "unit": "%"}, {"measurement": "expression of the reporter gene (% reaction, taking the reaction of 30 nM GLP-1 as 100%)", "setting": "GLP-1R [2]; [6]", "result": 5.697, "unit": "%"}, {"measurement": "expression of the reporter gene (% reaction, taking the reaction of 30 nM GLP-1 as 100%)", "setting": "GLP-1R [2]; [7]", "result": 10.19, "unit": "%"}, {"measurement": "expression of the reporter gene (% reaction, taking the reaction of 30 nM GLP-1 as 100%)", "setting": "GLP-1R [2]; [8]", "result": 22.23, "unit": "%"}, {"measurement": "expression of the reporter gene (% reaction, taking the reaction of 30 nM GLP-1 as 100%)", "setting": "GLP-1R [2]; [9]", "result": 35.55, "unit": "%"}, {"measurement": "expression of the reporter gene (% reaction, taking the reaction of 30 nM GLP-1 as 100%)", "setting": "GLP-1R [2]; final concentration 0.01 mg/ml", "result": 41.19, "unit": "%"}, {"measurement": "concentration of the intracellular cAMP (relative fluoresence intensity; lower reading = higher cAMP)", "setting": "GLP-1R [3]; [4]", "result": 3536.618, "unit": "RFU"}, {"measurement": "concentration of the intracellular cAMP (relative fluoresence intensity; lower reading = higher cAMP)", "setting": "GLP-1R [3]; [5]", "result": 2924.461, "unit": "RFU"}, {"measurement": "concentration of the intracellular cAMP (relative fluoresence intensity; lower reading = higher cAMP)", "setting": "GLP-1R [3]; [6]", "result": 2985.794, "unit": "RFU"}, {"measurement": "concentration of the intracellular cAMP (relative fluoresence intensity; lower reading = higher cAMP)", "setting": "GLP-1R [3]; [7]", "result": 2708.597, "unit": "RFU"}, {"measurement": "concentration of the intracellular cAMP (relative fluoresence intensity; lower reading = higher cAMP)", "setting": "GLP-1R [3]; [8]", "result": 1910.855, "unit": "RFU"}, {"measurement": "concentration of the intracellular cAMP (relative fluoresence intensity; lower reading = higher cAMP)", "setting": "GLP-1R [3]; [9]", "result": 2072.988, "unit": "RFU"}, {"measurement": "concentration of the intracellular cAMP (relative fluoresence intensity; lower reading = higher cAMP)", "setting": "GLP-1R [3]; final concentration 0.01 mg/ml", "result": 2310.616, "unit": "RFU"}, {"measurement": "concentration of the intracellular cAMP (relative fluoresence intensity; lower reading = higher cAMP)", "setting": "GLP-1R [3]; final concentration 0.03 mg/ml", "result": 2480.017, "unit": "RFU"}, {"measurement": "antagonistic effect of Exendin9-39 on S4P (% reaction, taking the reaction of 3 μM S4P as 100%)", "setting": "GLP-1R [1]; Exendin9-39 final concentration 0.03 nM", "result": 101.8115, "unit": "%"}, {"measurement": "antagonistic effect of Exendin9-39 on S4P (% reaction, taking the reaction of 3 μM S4P as 100%)", "setting": "GLP-1R [1]; Exendin9-39 final concentration 0.1 nM", "result": 96.64, "unit": "%"}, {"measurement": "antagonistic effect of Exendin9-39 on S4P (% reaction, taking the reaction of 3 μM S4P as 100%)", "setting": "GLP-1R [1]; Exendin9-39 final concentration 0.3 nM", "result": 83.84, "unit": "%"}, {"measurement": "antagonistic effect of Exendin9-39 on S4P (% reaction, taking the reaction of 3 μM S4P as 100%)", "setting": "GLP-1R [1]; Exendin9-39 final concentration 1 nM", "result": 90.78, "unit": "%"}, {"measurement": "antagonistic effect of Exendin9-39 on S4P (% reaction, taking the reaction of 3 μM S4P as 100%)", "setting": "GLP-1R [1]; Exendin9-39 final concentration 3 nM", "result": 72.84, "unit": "%"}, {"measurement": "antagonistic effect of Exendin9-39 on S4P (% reaction, taking the reaction of 3 μM S4P as 100%)", "setting": "GLP-1R [1]; Exendin9-39 final concentration 10 nM", "result": 52.48, "unit": "%"}, {"measurement": "antagonistic effect of Exendin9-39 on S4P (% reaction, taking the reaction of 3 μM S4P as 100%)", "setting": "GLP-1R [1]; Exendin9-39 final concentration 30 nM", "result": 32.33, "unit": "%"}, {"measurement": "antagonistic effect of Exendin9-39 on S4P (% reaction, taking the reaction of 3 μM S4P as 100%)", "setting": "GLP-1R [1]; Exendin9-39 final concentration 100 nM", "result": 18.77, "unit": "%"}, {"measurement": "antagonistic effect of Exendin9-39 on S4P (% reaction, taking the reaction of 3 μM S4P as 100%)", "setting": "GLP-1R [1]; Exendin9-39 final concentration 300 nM", "result": 15.97, "unit": "%"}, {"measurement": "antagonistic effect of Exendin9-39 on S4P (% reaction, taking the reaction of 3 μM S4P as 100%)", "setting": "GLP-1R [1]; Exendin9-39 final concentration 1000 nM", "result": 27.97, "unit": "%"}, {"measurement": "antagonistic effect of Exendin9-39 on S4P (% reaction, taking the reaction of 3 μM S4P as 100%)", "setting": "GLP-1R [1]; Exendin9-39 final concentration 3000 nM", "result": 14.57, "unit": "%"}, {"measurement": "antagonistic effect of Exendin9-39 on S4P (% reaction, taking the reaction of 3 μM S4P as 100%)", "setting": "GLP-1R [1]; Exendin9-39 final concentration 10000 nM", "result": 15.22, "unit": "%"}, {"measurement": "receptor specificity of the biological activity", "setting": "GLP-1R [1]; antagonised by Exendin9-39", "result": "mediated by GLP-1R"}, {"measurement": "cytotoxicity in the reporter gene test", "setting": "HEK 293/GLP-1R+Luc cells; final concentration 0.03 mg/ml", "result": "cytotoxic"}, {"measurement": "cytotoxicity in the reporter gene test", "setting": "HEK 293/GLP-1R+Luc cells; final concentration 0.1 mg/ml", "result": "cytotoxic"}]}
